# Assay results reported in US20020137929A1, “1 - (3-heterocyclylphenyl) isothiourea, -isourea, -guanidine and -amidine herbicidal agents” (Intellectual Property Department, BASF Aktiengesellschaft, priority 1998, published 2002).
# Key:
# GALAP (Galium) = assay: Postemergence herbicidal evaluation; type: in vivo, Galium aparine
# Outline: (§1)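 Visual 0-9 injury score (stand, vigor, malformation, size, chlorosis, appearance vs untreated) taken four to five weeks post-spray, averaged across repeat tests. Test plants about two weeks old; foliar spray of acetone/water (1:1) with 0.5% surfactant delivering ~0.0156-0.500 kg active/ha.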
# [1] = system: IPOHE (Morningglory, Ivyleaf); assay: Postemergence herbicidal evaluation; type: in vivo, Ipomoea hederacea
# Outline: as §1
# SETVI (Foxtail, Green) [2] = assay: Postemergence herbicidal evaluation; type: in vivo, Setaria viridis
# Outline: as §1
# [3] = system: TRZAWR (Wheat, Winter, cv Riband); assay: Postemergence herbicidal evaluation; type: in vivo, Triticum aestivum
# Outline: as §1
# ABUTH (Velvetleaf) = assay: Preemergence herbicidal evaluation; type: in vivo, Abutilon theophrasti; settings: rated 4-5 weeks after treatment
# Outline: (§2)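 Sown cups got a single aqueous acetone spray of test compound (roughly 0.0156–0.500 kg/ha) before seedlings emerged. Evaluation, 4–5 weeks on, used a 0–9 visual scale covering plant stand, vigor, size, malformation, chlorosis and general appearance compared with controls.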
# [4] = system: IPOHE (Morningglory, Ivyleaf); assay: Preemergence herbicidal evaluation; type: in vivo, Ipomoea hederacea; settings: rated 4-5 weeks after treatment
# Outline: as §2
# ECHCG (Barnyardgrass) = assay: Preemergence herbicidal evaluation; type: in vivo, Echinochloa crus-galli; settings: rated 4-5 weeks after treatment
# Outline: as §2
# SETVI (Foxtail, Green) [5] = assay: Preemergence herbicidal evaluation; type: in vivo, Setaria viridis; settings: rated 4-5 weeks after treatment
# Outline: as §2
# ZEAMX (Corn, Field) = assay: Preemergence herbicidal evaluation; type: in vivo, Zea mays; settings: rated 4-5 weeks after treatment
# Outline: as §2
# [6] = system: ECHORC (Watergrass (Calif.)); assay: Preemergence weed control under flooded paddy conditions; type: in vivo, Echinochloa oryzoides; settings: rated 3-4 weeks after treatment
# Outline: (§3)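 First, seeds or propagules go into the top 0.5 cm of silt loam; next, water is held 1.5 to 3 cm over the soil; then compound (50/50 acetone/water) is pipetted into it at about 0.0313 to 0.500 kg/ha; finally plants are rated visually 0-9 after three to four weeks.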
# CYPIR (Rice Flatsedge) = assay: as above; type: in vivo, Cyperus iria; settings: rated 3-4 weeks after treatment
# Outline: as §3
# MOOVA (Monochoria) = assay: as above; type: in vivo, Monochoria vaginalis; settings: rated 3-4 weeks after treatment
# Outline: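 Ratings on a 0-9 visual scale cover stand, vigor, malformation, size, chlorosis and overall appearance relative to a control, taken three to four weeks post-treatment. Application was into flood water over freshly sown silt loam at roughly 0.0313 to 0.500 kg/ha.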
# [7] = system: ECHORC (Watergrass (Calif.)); assay: Postemergence weed control under flooded paddy conditions; type: in vivo, Echinochloa oryzoides; settings: postemergence weeds, 3-4 weeks after treatment
# Outline: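 Injury ratings (0–9 scale covering stand, vigor, malformation, size, chlorosis and overall appearance versus control) were made three to four weeks after treatment. Test material, about 0.0313 to 0.500 kg/ha a.i. in 50/50 v/v aqueous/acetone, was added to flood water 1.5 to 3 cm deep over 3 to 5 cm weeds and 1.5 to 2.5 leaf rice.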
compound,measurement,setting,value
"C=CCN1C(=O)C(CC(=O)Nc2ccccc2)SC1=Nc1cc(-n2c(=O)cc(C(F)(F)F)n(C)c2=O)c(F)cc1Cl (centres unmarked) [Compound 44, 3-Allyl-2-{{2-chloro-5-[3,6-dihydro-3-methyl-2,6-dioxo-4-(trifluoromethyl)-1(2H)-pyrimidinyl]-4-fluorophenyl}imino}-4-oxo-5-thiazolidineacetanilide]",Postemergence herbicidal rating GALAP,GALAP (Galium); Rate 0.0156 kg/ha,0.0
same,Postemergence herbicidal rating GALAP,GALAP (Galium); Rate 0.0313 kg/ha,1.0
same,Postemergence herbicidal rating GALAP,GALAP (Galium); Rate 0.0625 kg/ha,1.0
same,Postemergence herbicidal rating GALAP,GALAP (Galium); Rate 0.1250 kg/ha,1.0
same,Postemergence herbicidal rating IPOHE,[1]; Rate 0.0156 kg/ha,9.0
same,Postemergence herbicidal rating IPOHE,[1]; Rate 0.0313 kg/ha,9.0
same,Postemergence herbicidal rating IPOHE,[1]; Rate 0.0625 kg/ha,9.0
same,Postemergence herbicidal rating IPOHE,[1]; Rate 0.1250 kg/ha,9.0
same,Postemergence herbicidal rating SETVI,"SETVI (Foxtail, Green) [2]; Rate 0.0156 kg/ha",0.0
same,Postemergence herbicidal rating SETVI,"SETVI (Foxtail, Green) [2]; Rate 0.0313 kg/ha",0.0
same,Postemergence herbicidal rating SETVI,"SETVI (Foxtail, Green) [2]; Rate 0.0625 kg/ha",2.0
same,Postemergence herbicidal rating SETVI,"SETVI (Foxtail, Green) [2]; Rate 0.1250 kg/ha",2.0
same,Postemergence herbicidal rating TRZAWR,[3]; Rate 0.0156 kg/ha,3.0
same,Postemergence herbicidal rating TRZAWR,[3]; Rate 0.0313 kg/ha,4.0
same,Postemergence herbicidal rating TRZAWR,[3]; Rate 0.0625 kg/ha,4.0
same,Postemergence herbicidal rating TRZAWR,[3]; Rate 0.1250 kg/ha,4.0
same,Preemergence herbicidal rating ABUTH,ABUTH (Velvetleaf); rate 0.0156 kg/ha,0.0
same,Preemergence herbicidal rating ABUTH,ABUTH (Velvetleaf); rate 0.0313 kg/ha,0.0
same,Preemergence herbicidal rating ABUTH,ABUTH (Velvetleaf); rate 0.0625 kg/ha,0.0
same,Preemergence herbicidal rating ABUTH,ABUTH (Velvetleaf); rate 0.1250 kg/ha,9.0
same,Preemergence herbicidal rating ABUTH,ABUTH (Velvetleaf); rate 0.2500 kg/ha,9.0
same,Preemergence herbicidal rating ABUTH,ABUTH (Velvetleaf); rate 0.5000 kg/ha,9.0
same,Preemergence herbicidal rating IPOHE,[4]; rate 0.0156 kg/ha,0.0
same,Preemergence herbicidal rating IPOHE,[4]; rate 0.0313 kg/ha,0.0
same,Preemergence herbicidal rating IPOHE,[4]; rate 0.0625 kg/ha,0.0
same,Preemergence herbicidal rating IPOHE,[4]; rate 0.1250 kg/ha,1.0
same,Preemergence herbicidal rating IPOHE,[4]; rate 0.2500 kg/ha,0.0
same,Preemergence herbicidal rating IPOHE,[4]; rate 0.5000 kg/ha,0.0
same,Preemergence herbicidal rating ECHCG,ECHCG (Barnyardgrass); rate 0.0156 kg/ha,0.0
same,Preemergence herbicidal rating ECHCG,ECHCG (Barnyardgrass); rate 0.0313 kg/ha,0.0
same,Preemergence herbicidal rating ECHCG,ECHCG (Barnyardgrass); rate 0.0625 kg/ha,0.0
same,Preemergence herbicidal rating ECHCG,ECHCG (Barnyardgrass); rate 0.1250 kg/ha,0.0
same,Preemergence herbicidal rating ECHCG,ECHCG (Barnyardgrass); rate 0.2500 kg/ha,0.0
same,Preemergence herbicidal rating ECHCG,ECHCG (Barnyardgrass); rate 0.5000 kg/ha,0.0
same,Preemergence herbicidal rating SETVI,"SETVI (Foxtail, Green) [5]; rate 0.0156 kg/ha",0.0
same,Preemergence herbicidal rating SETVI,"SETVI (Foxtail, Green) [5]; rate 0.0313 kg/ha",0.0
same,Preemergence herbicidal rating SETVI,"SETVI (Foxtail, Green) [5]; rate 0.0625 kg/ha",0.0
same,Preemergence herbicidal rating SETVI,"SETVI (Foxtail, Green) [5]; rate 0.1250 kg/ha",0.0
same,Preemergence herbicidal rating SETVI,"SETVI (Foxtail, Green) [5]; rate 0.2500 kg/ha",0.0
same,Preemergence herbicidal rating SETVI,"SETVI (Foxtail, Green) [5]; rate 0.5000 kg/ha",0.0
same,Preemergence herbicidal rating ZEAMX,"ZEAMX (Corn, Field); rate 0.0156 kg/ha",0.0
same,Preemergence herbicidal rating ZEAMX,"ZEAMX (Corn, Field); rate 0.0313 kg/ha",0.0
same,Preemergence herbicidal rating ZEAMX,"ZEAMX (Corn, Field); rate 0.0625 kg/ha",0.0
same,Preemergence herbicidal rating ZEAMX,"ZEAMX (Corn, Field); rate 0.1250 kg/ha",1.0
same,Preemergence herbicidal rating ZEAMX,"ZEAMX (Corn, Field); rate 0.2500 kg/ha",0.0
same,Preemergence herbicidal rating ZEAMX,"ZEAMX (Corn, Field); rate 0.5000 kg/ha",0.0
same,Herbicidal rating ECHORC,[6]; 0.0313 kg/ha,6.0
same,Herbicidal rating ECHORC,[6]; 0.0625 kg/ha,6.0
same,Herbicidal rating ECHORC,[6]; 0.1250 kg/ha,7.0
same,Herbicidal rating ECHORC,[6]; 0.2500 kg/ha,8.0
same,Herbicidal rating CYPIR,CYPIR (Rice Flatsedge); 0.0313 kg/ha,5.0
same,Herbicidal rating CYPIR,CYPIR (Rice Flatsedge); 0.0625 kg/ha,6.0
same,Herbicidal rating CYPIR,CYPIR (Rice Flatsedge); 0.1250 kg/ha,6.0
same,Herbicidal rating CYPIR,CYPIR (Rice Flatsedge); 0.2500 kg/ha,9.0
same,Herbicidal rating MOOVA,MOOVA (Monochoria); 0.0313 kg/ha,4.0
same,Herbicidal rating MOOVA,MOOVA (Monochoria); 0.0625 kg/ha,4.0
same,Herbicidal rating MOOVA,MOOVA (Monochoria); 0.1250 kg/ha,7.0
same,Herbicidal rating MOOVA,MOOVA (Monochoria); 0.2500 kg/ha,9.0
same,Herbicidal rating ECHORC,[7]; rate 0.0313 kg/ha,6.0
same,Herbicidal rating ECHORC,[7]; rate 0.0625 kg/ha,6.0
same,Herbicidal rating ECHORC,[7]; rate 0.1250 kg/ha,7.0
same,Herbicidal rating ECHORC,[7]; rate 0.2500 kg/ha,8.0
